Measured values reported in PubChem BioAssay (NCI).
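Here, GI50 denotes the concentration required for 50% inhibition of growth. Definition used: TGI = concentration required for complete inhibition of growth.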

Columns and labels:
Experiment in all cases: growth of human tumour cells (NCI), 384-well format
[1] = test system: 786-0 renal
[2] = test system: A498 renal
[3] = test system: A549 NSCLC
[4] = test system: ACHN renal
[5] = test system: BT-549 breast
[6] = test system: CAKI-1 renal
[7] = test system: CCRF-CEM leukemia
[8] = test system: COLO 205 colon
[9] = test system: DU-145 prostate
[10] = test system: EKVX NSCLC
[11] = test system: HCC-2998 colon
[12] = test system: HCT-116 colon
[13] = test system: HCT-15 colon
[14] = test system: HL-60(TB) leukemia
[15] = test system: HOP-62 NSCLC
[16] = test system: HOP-92 NSCLC
[17] = test system: HS 578T breast
[18] = test system: HT29 colon
[19] = test system: IGROV1 ovarian
[20] = test system: K-562 leukemia
[21] = test system: KM12 colon
[22] = test system: LOX IMVI melanoma
[23] = test system: M14 melanoma
[24] = test system: MALME-3M melanoma
[25] = test system: MDA-MB-231 breast
[26] = test system: MDA-MB-435 melanoma
[27] = test system: MDA-MB-468 breast
[28] = test system: MOLT-4 leukemia
[29] = test system: NCI-H226 lung
[30] = test system: NCI-H23 lung

SMILES: CC(=O)c1ccc2c(c1)c1cc(C(C)=O)ccc1n2CCNC(C)C
- GI50 [1]: 228 nM
- TGI [1]: 855 nM
- GI50 [2]: 182 nM
- TGI [2]: 329 nM
- GI50 [3]: 189 nM
- TGI [3]: 353 nM
- GI50 [4]: 101 nM
- TGI [4]: 245 nM
- GI50 [5]: 348 nM
- TGI [5]: 932 nM
- GI50 [6]: 150 nM
- TGI [6]: 317 nM
- GI50 [7]: 148 nM
- TGI [7]: 299 nM
- GI50 [8]: 164 nM
- TGI [8]: 311 nM
- GI50 [9]: 344 nM
- TGI [9]: 1430 nM
- GI50 [10]: 409 nM
- TGI [10]: 931 nM
- GI50 [11]: 311 nM
- TGI [11]: 811 nM
- GI50 [12]: 199 nM
- TGI [12]: 731 nM
- GI50 [13]: 206 nM
- TGI [13]: 464 nM
- GI50 [14]: 201 nM
- TGI [14]: 349 nM
- GI50 [15]: 201 nM
- TGI [15]: 755 nM
- GI50 [16]: 225 nM
- TGI [16]: 656 nM
- GI50 [17]: 195 nM
- TGI [17]: 376 nM
- GI50 [18]: 206 nM
- TGI [18]: 1030 nM
- GI50 [19]: 480 nM
- TGI [19]: 15100 nM
- GI50 [20]: 178 nM
- TGI [20]: 405 nM
- GI50 [21]: 286 nM
- TGI [21]: 2270 nM
- GI50 [22]: 192 nM
- TGI [22]: 338 nM
- GI50 [23]: 259 nM
- TGI [23]: 665 nM
- GI50 [24]: 172 nM
- TGI [24]: 319 nM
- GI50 [25]: 194 nM
- TGI [25]: 446 nM
- GI50 [26]: 320 nM
- TGI [26]: 922 nM
- GI50 [27]: 164 nM
- TGI [27]: 306 nM
- GI50 [28]: 34.6 nM
- TGI [28]: 101 nM
- GI50 [29]: 153 nM
- TGI [29]: 308 nM
- GI50 [30]: 193 nM
